In US7572600B2, “Enzymatic activities in chemokine-mediated inflammation” (Chemocentryx, Inc., priority 2004, dated 2009):
Where no end group is shown, it is not given here.

Molecular target: T1, FPRL1 (Homo sapiens, UniProt P25090)
T1 sequence (P25090 1-351): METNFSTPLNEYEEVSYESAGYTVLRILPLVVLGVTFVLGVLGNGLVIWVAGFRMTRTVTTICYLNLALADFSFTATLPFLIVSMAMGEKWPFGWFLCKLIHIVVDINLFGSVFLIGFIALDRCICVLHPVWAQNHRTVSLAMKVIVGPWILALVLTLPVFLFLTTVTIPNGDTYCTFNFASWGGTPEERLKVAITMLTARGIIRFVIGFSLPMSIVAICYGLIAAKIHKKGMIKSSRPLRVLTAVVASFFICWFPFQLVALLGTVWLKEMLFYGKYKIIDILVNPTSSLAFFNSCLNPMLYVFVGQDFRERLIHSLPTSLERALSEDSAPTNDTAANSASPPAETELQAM
Assay: Functional assays on FPRL1 (receptor signaling and chemotaxis)
Assay type: cell-based
Design: endogenous in cells; host or cells: human CD14+ monocytes from buffy coats
Description: Receptor signaling assay. For individual measurements, cells were loaded for 45 min at room temperature with 2 μM indo-1/AM (Invitrogen, Carlsbad Calif.) in culture medium, then washed with 10 ml PBS and resuspended at 10^6 cells/ml in HBSS containing 0.1% BSA. Cytosolic calcium levels were determined using a Photon Technology International fluorimeter (excitation at 350 nm, ratio of dual emission at 400 and 490 nm). For measuring calcium dose responses, cells were analyzed with a Fluorometric Imaging Plate Reader 384 (FLIPR^384) (Molecular Devices, Sunnyvale, Calif.). Cells were loaded for 1 hr at 37° C. with 5 μM fluo-4 in HBSS with 0.1% BSA, then washed, transferred to black-wall 96-well plates, and subsequently excited at 505 nm with emission recorded at 530 nm with a standard protocol provided by the manufacture. Cells were stimulated with agonists 20 s after the monitoring of fluorescence began. Data were analyzed and plotted in arbitrary units of fluorescence using Prism. To ensure that responses were specific to FPRL1, we utilized a selective small-molecule antagonist of human FPRL1, generated by ChemoCentryx, which was optimized from a high throughput compound library screening approach.
Chemotaxis assays. L1.2-CCR1 and L1.2-FPRL1 transfectants, monocytes and neutrophils were collected by centrifugation and resuspended in HBSS with 0.1% BSA. The assays were performed in 96-well ChemoTx® microplates (Neuroprobe, Rockville, Md.). Chemokines were diluted in HBSS with 0.1% BSA and added to the lower wells (final volume 29 μL), then 20 μL of cell suspension (5×10^6 cells/mL for monocytes; 2.5×10^6 cells/mL for neutrophils) were added to the polycarbonate filters (5 μm pore size for monocytes and FPRL1 transfectants; 3 μm pore size for neutrophils). After incubation for 90 min (37° C., 100% humidity, 5% CO2), the filters were removed and the cells that migrated into the lower chamber were quantified by using the CyQuant cell proliferation assay kit (Molecular Probes, Oreg.).

fold more potent than all other natural agents posited to act on FPRL1: 50 to 100 fold
EC50 (isolated peptide): 10 to 30 nM
potency and efficacy versus other purported natural FPRL1 ligands (SAA, beta-amyloid protein 42, lipoxin A4, fMLP) (receptor signaling and chemotaxis assays): more potent and efficacious
Sequence: MLWRRKIGPQMTLSHAAG [SHAAGtide]
